Assay results reported in patent publication US8080582B2, “Derivatives of 8-epiblechnic acid and their effects on down-regulation of endothelin (ETA) receptor mRNA” (ScinoPharm Taiwan Ltd., priority 2008, dated 2011).
“Also recorded” adds a separate entry of the source. Like-named read-outs stand apart in the source and are kept apart here.

Columns and labels:
Assay type in all cases: cell-based
[1] = tested on: ETAR protein expression; test: Western blot of ETAR protein expression in vascular smooth muscle cells; conditions: 100 μg/ml, 48 hrs
Experimental: The smooth muscle cells (5×10^5 cells in 35 mm culture dish) were treated with Sal-B and its analogs for 48 hrs, and then a proteinase inhibitor solution was used to collect proteins from the cells.
The protein concentrations in the samples were calculated by using BSA as the standards to construct a standard curve. After mixing Bradford Protein assay reagent evenly with the standards or the samples, the OD595 absorption values were measured. Standard curve was constructed by plotting OD595 values of the BSA standards versus their concentrations. The protein concentrations of the samples were calculated from the standard curve.
Bio-Rad's Mini-Protean III Dual Slab Cell instrument was used. A 12% polyacrylamide separating gel solution was prepared and placed into a electrophoretic gel preparation device. Deionized water was added to flat the surface of the separating gel solution, and the water was poured off after the gel had coagulated. A stacking gel solution containing 5% polyacrylamide was added and then a comb was inserted. The comb was removed after the stacking gel had coagulated, and the gel was placed into an upright electrophoresis tank. A suitable amount of running buffer was added, and then the protein samples were loaded into the wells of stacking gel layer. […]

[2] = tested on: Vascular smooth muscle cells (cell line A10); test: MTT cell viability / observation of normal vascular smooth muscle cells (A10); conditions: A10 cells, drug concentration 0.2 mM, 48 hrs, MTT
Experimental: (§1) The cells (1×10^5 cells/well in 24-well plates) were cultured for 24 hrs. Different concentrations of Sal-B and its analogs (0, 50, 100, 150, 200, 250 μg/ml) were added to treat the cells. After treating for 48 hrs, 100 μl MTT solution was added to each well, and the plate was placed in an incubator for 1-4 hrs. After adding 400 μl DMSO to treat the cells for 30 min., 200 μl samples were collected and placed in a 96-well plate to conduct the absorption measurement at 550 nm.
(§2) Cell viability testing (MTT testing) was employed to determine the cytotoxicity of Sal-B and EBA to vascular smooth muscle cells. Vascular smooth muscle cells (cell line A10) were treated with Sal-B and EBA at concentrations of 0, 0.1, 0.2, 0.3, 0.4, and 0.5 mM. After treating for 48 hrs, MTT was added and allowed to react for 3 hrs at 37° C. Then, DMSO was added and allowed to react for 30 min., after that, the OD570 absorption values were measured. Cell viability was still 90% when the drug concentration reached 0.2 mM.
(§3) Sal-B's analogs, compounds A to F, were dissolved in DMSO, and then added to A10 cells to observe the results.

[3] = tested on: normal mammary gland cell line (A1N4); test: Cytotoxicity test on normal mammary gland cells
Experimental: as §1

[4] = MTT cell viability / observation of normal vascular smooth muscle cells (A10); conditions: rat, A10 cells, drug concentration 0.2 mM, MTT
Experimental: as §1, §2, §3

[5] = MTT cell viability, prostate cancer cells; conditions: human, PC-3 prostate cancer cells; PC-3, 0.2 mM, 48 hrs, MTT
Experimental: as §1
(§4) Cancer cells were treated with Sal-B and EBA at concentrations of 0, 0.1, 0.2, 0.3, 0.4, 0.5 mM. After treating for 48 hrs, MTT was added, and then allowed to react for 3 hrs at 37° C. After that, DMSO was added and allowed to react for 30 min., the OD570 absorption values were measured. Cell viability was above 80% when nasopharyngeal cancer cells (Hone-1) were treated with […] Sal-B and EBA. […] But the cell viability remained above 70% for treating with 0.1 mM and 0.2 mM EBA. Similar results were obtained when prostate cancer cells (PC-3) were treated with the drugs: Cell viability was above 80% for treating PC-3 cells with 0.2 mM Sal-B or EBA.
MTT testing was employed to observe the viability of cancer cells after treating with Sal-B and the six synthetic analogs.

[6] = tested on: nasopharyngeal cancer cells (Hone-1); test: MTT cell viability, nasopharyngeal cancer cells; conditions: Hone-1 cells, summary statement
Experimental: as §1, §4

[7] = MTT cell viability, nasopharyngeal cancer cells; conditions: human, Hone-1 nasopharyngeal cancer cells, 48 hrs, MTT
Experimental: as §1, §4

Row | Compound | ETAR protein expression compared with control [1] | Cell viability [2] | Cytotoxicity to normal cells [3] | viability at 48 h, 0.2 mM [4] | viability at 48 h, 0.2 mM [5] | Inhibition of growth of Hone-1 cells [6] | viability at 48 h, 0.05 mM ([7]; Hone-1, 0.05 mM) | viability at 48 h ([7]; Hone-1, 0.1 mM and 0.2 mM) | Cytotoxicity to normal cells ([3]; A1N4 normal mammary gland cells, FIG. 2)
1 | epiblechnic acid [EBA] | significantly reduced | 90% | no significant difference was observed on the cytotoxicity results |  |  |  |  |  | 
2 | O=C(/C=C/c1ccc(O)c2c1[C@H](C(=O)O[C@H](Cc1ccc(O)c(O)c1)C(=O)[O-])[C@@H](c1ccc(O)c(O)c1)O2)O[C@H](Cc1ccc(O)c(O)c1)C(=O)[O-].[Mg+2] [Sal-B, magnesium lithospermate B] | significantly reduced |  |  | 90% | > 80% | significantly inhibit the growth | > 80% | ~60% | no significant difference was observed on the cytotoxicity results; also recorded: not highly toxic to normal cells
